Measured values: patent US9440957B2, “Compounds and compositions for modulating EGFR Activity” (Novartis AG, priority 2012, dated 2016)
Where two headings read alike, the source gives them in different places.

Tests used:
EGFR(L858R/T790M) = target: T1, EGFR(L858R/T790M) (Homo sapiens, UniProt P00533, L858R/T790M); assay: EGFR biochemical assay (HTRF), IC50 determinations
T1 construct: purchased from Carna (GST-a.a. 669-1210)
How it was run: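 Two formats were run: compound preincubated at room temperature with enzyme and biotin-TK peptide before ATP starts the reaction, or no preincubation with enzyme added last. Reactions ran 60 min at room temperature and were stopped with EDTA. Phosphopeptide was read by HTRF (PT66K/SAXL, 1 h).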

H1975 (EGFR L858/T790M) = H1975 (EGFR L858/T790M) (Homo sapiens, UniProt P00533, L858R/T790M); assay: EGFR target modulation in H1975 cell line (phospho-EGFR Y1173 ELISA); assay type: cell-based
How it was run: (§1)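 Phospho-EGFR Y1173 levels were measured by chemiluminescent capture ELISA in lysates of cells exposed to compound for 3 hours at 37 °C. Inhibition was normalised to EGF-stimulated control cells taken as maximal response, and IC50 values were obtained by non-linear curve fitting.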

H3255 (EGFR L858R) = H3255 (EGFR L858R) (Homo sapiens, UniProt P00533, L858R); assay: EGFR target modulation in H3255 cell line (phospho-EGFR Y1173 ELISA); assay type: cell-based
How it was run: as §1

HaCaT (EGFR WT) = HaCaT (EGFR WT) (Homo sapiens, UniProt P00533); assay: EGFR target modulation in HaCaT (EGFR-WT) cell line (phospho-EGFR Y1173 ELISA); assay type: cell-based; settings: value in parentheses
Protocol: EGFR Target Modulation in HaCaT (EGFR-WT) Cell Line Tissue Culture. […] The serial diluted compounds were transferred to the plate containing cells by using a 50 nl Pin Head device (Perkin Elmer) and the cells were placed back in the incubator for 3 hours. […] Phospho-EGFR ([…]) ELISA. Solid white high-binding ELISA plates (Greiner #781074) were coated with 5 ug/ml anti-EGFR capture antibody (R&D Systems #AF231) overnight in 50 mM carbonate/bicarbonate pH 9.5 buffer. […] Wash steps were carried out with a Bio-Tek ELx405 SelectTM using 4 cycles of 100 ul TBS-T (20 mM Tris, 137 mM NaCl, 0.05% Tween-20) per well. […] Lysis was allowed to occur for 20 minutes on ice. A 25 ul aliquot was added to each well of the blocked ELISA plate and incubated overnight at 4° C. with gentle shaking. […] After washing, 1:2,000 anti-rabbit-HRP (Cell Signaling #7074) in 0.2% BSA/TBS-T was added and incubated for 1 hour at room temperature. Chemiluminescent detection was carried out with SuperSignal ELISA Pico substrate (ThermoScientific #37069). Signal was read on EnVision plate reader using built-in UltraLUM setting. Data Analysis. Control cells treated with EGF were set to 100% maximum response. […] With these parameters, the IC50's for each compound in each cell line was calculated using non-linear curve fitting analysis.

HCC827 (Del E746-A750) = HCC827 (Del E746-A750) (Homo sapiens, UniProt P00533, DEL746-750); assay: EGFR target modulation in HCC827 cell line (phospho-EGFR Y1173 ELISA); assay type: cell-based
How it was run: as §1

HEKn (EGFR WT) = HEKn (EGFR WT) (Homo sapiens, UniProt P00533); assay: EGFR target modulation in HEKn (EGFR-WT) cell line (phospho-EGFR Y1173 ELISA); assay type: cell-based; settings: value outside parentheses
How it was run: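 Read-out was Y1173 phosphorylation, measured by chemiluminescent ELISA with anti-EGFR capture of lysates. HEKn keratinocytes (wild-type EGFR) were treated with compound for 3 h.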

[1] = EGFR (L858R/T790M) with 90 min pre-incubation, read-out: IC50 (μM) Column B
[2] = EGFR (L858R/T790M) with no pre-incubation, read-out: IC50 (μM) Column A

Chain of HCC827 (Del E746-A750) (P00533 with tags, fused parts or gaps DEL746-750): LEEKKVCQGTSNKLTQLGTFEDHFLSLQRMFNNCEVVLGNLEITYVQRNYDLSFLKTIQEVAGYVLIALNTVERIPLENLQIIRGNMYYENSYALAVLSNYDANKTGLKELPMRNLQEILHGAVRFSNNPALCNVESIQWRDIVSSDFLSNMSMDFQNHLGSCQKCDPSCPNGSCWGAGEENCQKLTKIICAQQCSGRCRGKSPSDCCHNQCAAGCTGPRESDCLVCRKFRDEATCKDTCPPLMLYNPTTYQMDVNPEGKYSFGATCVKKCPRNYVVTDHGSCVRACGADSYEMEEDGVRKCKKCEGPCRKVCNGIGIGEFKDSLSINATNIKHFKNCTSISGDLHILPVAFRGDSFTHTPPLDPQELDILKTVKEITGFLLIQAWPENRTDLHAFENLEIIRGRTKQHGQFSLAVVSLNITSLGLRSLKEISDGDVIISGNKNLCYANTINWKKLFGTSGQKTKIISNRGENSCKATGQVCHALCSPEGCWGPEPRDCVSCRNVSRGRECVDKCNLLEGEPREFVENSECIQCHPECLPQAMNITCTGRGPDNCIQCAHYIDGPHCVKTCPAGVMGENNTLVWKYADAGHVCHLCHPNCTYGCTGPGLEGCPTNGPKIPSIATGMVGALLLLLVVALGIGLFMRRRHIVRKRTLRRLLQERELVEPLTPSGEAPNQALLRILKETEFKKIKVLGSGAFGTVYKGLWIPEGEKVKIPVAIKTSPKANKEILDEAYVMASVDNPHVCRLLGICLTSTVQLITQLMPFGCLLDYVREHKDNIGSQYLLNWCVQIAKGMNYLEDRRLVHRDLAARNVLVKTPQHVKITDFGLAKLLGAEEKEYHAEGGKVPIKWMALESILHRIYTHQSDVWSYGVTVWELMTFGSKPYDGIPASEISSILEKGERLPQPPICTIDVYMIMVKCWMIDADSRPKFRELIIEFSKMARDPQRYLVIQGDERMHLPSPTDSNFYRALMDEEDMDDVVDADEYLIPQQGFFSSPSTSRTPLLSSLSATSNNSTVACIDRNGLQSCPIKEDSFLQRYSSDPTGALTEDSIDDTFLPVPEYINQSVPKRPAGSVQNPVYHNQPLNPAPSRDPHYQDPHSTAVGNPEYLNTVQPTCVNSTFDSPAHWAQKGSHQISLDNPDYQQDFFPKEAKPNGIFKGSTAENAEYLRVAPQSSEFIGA
Chain of HEKn (EGFR WT) (P00533 25-1210): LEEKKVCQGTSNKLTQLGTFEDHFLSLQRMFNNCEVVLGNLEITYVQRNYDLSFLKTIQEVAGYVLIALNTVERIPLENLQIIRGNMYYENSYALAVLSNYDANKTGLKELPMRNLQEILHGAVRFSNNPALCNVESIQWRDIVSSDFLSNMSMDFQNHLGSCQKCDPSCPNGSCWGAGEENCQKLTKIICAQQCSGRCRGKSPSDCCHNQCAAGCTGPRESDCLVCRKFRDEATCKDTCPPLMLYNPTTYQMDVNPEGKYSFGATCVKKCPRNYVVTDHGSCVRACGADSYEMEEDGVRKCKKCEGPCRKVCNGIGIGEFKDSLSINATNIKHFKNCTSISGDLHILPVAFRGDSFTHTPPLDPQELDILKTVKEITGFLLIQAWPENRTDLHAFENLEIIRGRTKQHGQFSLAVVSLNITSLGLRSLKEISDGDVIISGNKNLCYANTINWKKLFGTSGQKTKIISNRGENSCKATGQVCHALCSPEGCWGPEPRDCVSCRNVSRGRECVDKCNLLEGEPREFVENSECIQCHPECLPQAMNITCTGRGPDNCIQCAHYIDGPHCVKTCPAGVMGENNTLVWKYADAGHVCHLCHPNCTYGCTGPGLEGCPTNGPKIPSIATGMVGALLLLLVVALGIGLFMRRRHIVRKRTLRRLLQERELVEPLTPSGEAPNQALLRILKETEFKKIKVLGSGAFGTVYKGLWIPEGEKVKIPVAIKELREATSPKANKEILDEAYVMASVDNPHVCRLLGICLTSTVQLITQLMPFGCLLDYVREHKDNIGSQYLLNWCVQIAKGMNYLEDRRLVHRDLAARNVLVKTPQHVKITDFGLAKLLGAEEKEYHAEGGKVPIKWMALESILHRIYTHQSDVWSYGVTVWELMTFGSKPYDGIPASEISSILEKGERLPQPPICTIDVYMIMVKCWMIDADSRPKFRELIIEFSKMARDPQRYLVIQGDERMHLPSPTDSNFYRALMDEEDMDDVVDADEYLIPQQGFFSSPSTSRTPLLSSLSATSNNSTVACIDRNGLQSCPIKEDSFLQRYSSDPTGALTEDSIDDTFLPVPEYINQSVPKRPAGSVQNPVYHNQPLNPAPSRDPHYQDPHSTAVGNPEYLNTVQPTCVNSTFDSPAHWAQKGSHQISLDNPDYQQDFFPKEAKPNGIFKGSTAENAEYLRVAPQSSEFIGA
Chain of HaCaT (EGFR WT) (P00533 25-1210): as above
Chain of H1975 (EGFR L858/T790M) (P00533 25-1210 T790M/L858R): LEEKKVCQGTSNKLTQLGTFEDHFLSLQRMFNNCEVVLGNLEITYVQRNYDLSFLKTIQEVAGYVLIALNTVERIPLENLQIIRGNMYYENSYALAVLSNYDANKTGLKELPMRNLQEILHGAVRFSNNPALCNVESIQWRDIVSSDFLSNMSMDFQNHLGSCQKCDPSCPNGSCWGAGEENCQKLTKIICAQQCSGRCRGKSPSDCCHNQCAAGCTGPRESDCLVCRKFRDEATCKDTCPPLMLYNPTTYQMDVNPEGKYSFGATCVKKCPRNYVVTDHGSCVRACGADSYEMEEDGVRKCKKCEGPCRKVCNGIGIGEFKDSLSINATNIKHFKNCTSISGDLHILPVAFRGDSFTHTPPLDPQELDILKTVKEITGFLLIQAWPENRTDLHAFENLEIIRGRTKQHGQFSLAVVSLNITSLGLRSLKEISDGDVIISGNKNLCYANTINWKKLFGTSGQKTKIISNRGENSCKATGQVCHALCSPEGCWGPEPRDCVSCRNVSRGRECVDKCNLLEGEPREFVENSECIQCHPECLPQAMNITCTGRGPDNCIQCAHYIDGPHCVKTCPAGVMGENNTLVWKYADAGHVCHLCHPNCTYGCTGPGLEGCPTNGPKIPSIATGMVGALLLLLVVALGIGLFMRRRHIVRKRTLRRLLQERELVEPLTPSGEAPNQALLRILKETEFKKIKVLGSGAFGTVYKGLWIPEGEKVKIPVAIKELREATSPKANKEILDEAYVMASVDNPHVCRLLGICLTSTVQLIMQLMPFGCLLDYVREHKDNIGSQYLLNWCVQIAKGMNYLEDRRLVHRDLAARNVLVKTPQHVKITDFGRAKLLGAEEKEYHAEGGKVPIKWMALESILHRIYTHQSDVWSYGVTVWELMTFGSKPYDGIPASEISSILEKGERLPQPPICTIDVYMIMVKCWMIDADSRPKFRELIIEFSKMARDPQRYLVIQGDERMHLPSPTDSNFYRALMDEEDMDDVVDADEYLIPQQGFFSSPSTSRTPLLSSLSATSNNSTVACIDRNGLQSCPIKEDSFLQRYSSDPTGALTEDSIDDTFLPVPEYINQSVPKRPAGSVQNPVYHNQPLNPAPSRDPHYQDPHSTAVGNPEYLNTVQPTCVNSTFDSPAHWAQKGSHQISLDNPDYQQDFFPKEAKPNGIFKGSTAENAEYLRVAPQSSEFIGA

IC50 (EGFR(L858R/T790M); [1]) [µM]	IC50 (EGFR(L858R/T790M); [2]) [µM]	IC50 (H1975 (EGFR L858/T790M)) [nM]	IC50 (H3255 (EGFR L858R)) [nM]	IC50 (HaCaT (EGFR WT)) [nM]	IC50 (HCC827 (Del E746-A750)) [nM]	IC50 (HEKn (EGFR WT)) [nM]	Structure (SMILES)
0.572	6.05	> 10000	1540	> 10000			CN(C)C/C=C/C(=O)N1CCCCC(n2c(NC(=O)c3ccnc(P(C)(C)=O)c3)nc3cccc(Cl)c32)C1 (single isomer, unassigned) [Example 21-10A]
0.014	0.222	421	77	6090			CN(C)C/C=C/C(=O)N1CCCCC(n2c(NC(=O)c3ccnc(P(C)(C)=O)c3)nc3cccc(Cl)c32)C1 (single isomer, unassigned) [Example 21-10B]
0.36	0.352	899	2530	> 10000			Cc1cc(C(=O)Nc2nc3cccc(Cl)c3n2[C@@H]2CCCCN(C(=O)C3=CCCN(C)C3)C2)ccn1 [Example 3-16]
1.2	0.676	3480	6400	> 10000			Cc1cc(C(=O)Nc2nc3cccc(Cl)c3n2[C@@H]2CCCCN(C(=O)C3=CCN(C)CC3)C2)ccn1 [Example 3-17]
0.108	0.135	1050	719	> 10000	480		Cc1cc(C(=O)Nc2nc3cccc(Cl)c3n2[C@@H]2CCCCN(C(=O)/C=C/C(C)(C)N(C)C)C2)ccn1 [Example 3-18]
0.016	0.271	50	111	> 10000			C=CC(=O)N1CCN(C(=O)OC(C)(C)C)CC(n2c(NC(=O)c3ccnc(C)c3)nc3cccc(Cl)c32)C1 (stereo not shown) [Example 12, tert-butyl 4-acryloyl-6-(7-chloro-2-(2-methylisonicotinamido)-1H-benzo[d]imidazol-1-yl)-1,4-diazepane-1-carboxylate]
0.113	1.63	113	312	> 10000			C=CC(=O)N1CCNCC(n2c(NC(=O)c3ccnc(C)c3)nc3cccc(Cl)c32)C1 (stereo not shown) [Example 13, N-(1-(1-acryloyl-1,4-diazepan-6-yl)-7-chloro-1H-benzo[d]imidazol-2-yl)-2-methylisonicotinamide]
0.009	0.16	27	71	2060			C=CC(=O)N1CCN(C(C)=O)CC(n2c(NC(=O)c3ccnc(C)c3)nc3cccc(Cl)c32)C1 (stereo not shown) [Example 14, N-(1-(1-acetyl-4-acryloyl-1,4-diazepan-6-yl)-7-chloro-1H-benzo[d]imidazol-2-yl)-2-methylisonicotinamide]
< 0.001	0.004	1	3	139	1		C=CC(=O)N1CCCC[C@@H](n2c(NC(=O)c3cc(C)nc(C)c3)nc3ccc(OCCN4CCCC4)c(Cl)c32)C1 [Example 15, (R)—N-(1-(1-acryloylazepan-3-yl)-7-chloro-6-(2-(pyrrolidin-1-yl)ethoxy)-1H-benzo[d]imidazol-2-yl)-2,6-dimethylisonicotinamide]
0.005	0.045	58	60	1100			Cc1cc(C(=O)Nc2nc3cccc(Cl)c3n2[C@@H]2CCCCN(C(=O)/C=C/CN(C3CC3)C3CC3)C2)ccn1 [Example 16, (R,E)-N-(7-chloro-1-(1-(4-(dicyclopropylamino)but-2-enoyl)azepan-3-yl)-1H-benzo[d]imidazol-2-yl)-2-methylisonicotinamide]
< 0.001	0.002	< 1	2	67		82	C=CC(=O)N1CCCC[C@@H](n2c(NC(=O)c3cc(C)nc(C)c3)nc3cc(CN4CC[C@H](F)C4)cc(C)c32)C1 [Example 17-158]
< 0.001	0.002	< 1	2	84		70	C=CC(=O)N1CCCC[C@@H](n2c(NC(=O)c3cc(C)nc(C)c3)nc3cc(CN4CC[C@@H](F)C4)cc(C)c32)C1 [Example 17-159]
0.01	0.21	93	202	> 10000		> 10000	C/C=C/C(=O)N1CCCC[C@@H](n2c(NC(=O)c3cc(C)nc(C)c3)nc3cc(CN4CC[C@H](OC)C4)ccc32)C1 [Example 17-174]
< 0.001	0.004	2	4	522		289	C=CC(=O)N1CCCC[C@@H](n2c(NC(=O)c3cc(C)nc(C)c3)nc3cc(CN4CC[C@H](OC)C4)ccc32)C1 [Example 17-175]
< 0.001	0.003	1	1	92	1		C=CC(=O)N1CCCC[C@@H](n2c(NC(=O)c3cc(C)nc(C)c3)nc3cc(CN4CCN(C)C(=O)C4)cc(C)c32)C1 [Example 17-180]
< 0.001	0.003	1	1	77	1		C=CC(=O)N1CCCC[C@@H](n2c(NC(=O)c3cc(C)nc(C)c3)nc3cc(CN4CCN(C(C)=O)CC4)cc(C)c32)C1 [Example 17-181]
0.022	0.472	770	422	> 10000			Cc1cc(C(=O)Nc2nc3cccc(Cl)c3n2[C@@H]2CCCCN(C(=O)/C=C/CN(C)C)C2)cc(P(C)(C)=O)n1 [Example 17-182]
5.84	16.1	3740	4840	> 10000			Cc1cc(C(=O)Nc2nc3cccc(Cl)c3n2[C@@H]2CCCCN(C(=O)/C=C/CN(C)C(=O)OC(C)(C)C)C2)ccn1 [Example 17-184]
0.001	0.022	13	14	475	2		Cc1cc(C(=O)Nc2nc3cccc(C(F)(F)F)c3n2[C@@H]2CCCCN(C(=O)/C=C/CN(C)C)C2)ccn1 [Example 17-187]
0.003	0.04	16	39	870	10		Cc1cc(C(=O)Nc2nc3cccc(C(F)(F)F)c3n2[C@@H]2CCCCN(C(=O)/C=C/CN(C)C)C2)cc(C)n1 [Example 17-188]
< 0.001	0.003	2	3	47			Cc1cc(C(=O)Nc2nc3cccc(Cl)c3n2[C@@H]2CCCCN(C(=O)/C=C/CNC3CC3)C2)ccn1 [Example 17-190]
< 0.001	0.004	2	3	59			Cc1cc(C(=O)Nc2nc3cccc(Cl)c3n2[C@@H]2CCCCN(C(=O)/C=C/CNC(C)(C)C)C2)ccn1 [Example 17-191]
< 0.001	0.003	2	2	37			Cc1cc(C(=O)Nc2nc3cccc(Cl)c3n2[C@@H]2CCCCN(C(=O)/C=C/CNC3(C)CC3)C2)ccn1 [Example 17-192]
< 0.001	0.002	1	2	44	1		C=CC(=O)N1CCCC[C@@H](n2c(NC(=O)c3ccnc(C)c3)nc3ccc(OCCN4CCCC4)c(Cl)c32)C1 [Example 17-193]
0.006	0.068	41	67	576	16		C/C=C/C(=O)N1CCCC[C@@H](n2c(NC(=O)c3ccnc(C)c3)nc3ccc(OCCN4CCCC4)c(Cl)c32)C1 [Example 17-194]
0.117	1.67	935	2000	> 10000			Cc1cc(C(=O)Nc2nc3cccc(Cl)c3n2[C@H]2CCCCN(C(=O)/C=C/CN(C)C)C2)cc(C)n1 [Example 17-197]
